Test results taken from patent US11696913B2, “Prolonged ectoparasite-controlling agent for animal” (MITSUI CHEMICALS AGRO, INC., priority 2017, dated 2023).
Read-outs that look alike come from different tables or passages of the source.

Experiments:
Ctenocephalides felis [1] = assay: Systemic treatment in-vivo test with cat flea on rats; details: Ctenocephalides felis, ip, intraperitoneal injection
Method in brief: (§1)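 Rats dosed intraperitoneally per body weight in glycerol formal (up to 25% NMP for poorly soluble compounds). 30 D. variabilis nymphs released on treatment day and weekly, 30 C. felis fleas 24 h later; live attached engorged ticks counted at 48 h (±4 h), live fleas at 24 h, efficacy versus placebo group.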

Amblyomma americanum = assay: In vitro contact test with hard ticks (Amblyomma americanum nymphs); details: read-out: acaricidal activity; for pest or weed control at 0.2 µg/cm2, 0.2 µg/cm2: dose 0.2 μg/cm^2, 48 h; for pest or weed control at 1 µg/cm2, 1 µg/cm2: dose 1 μg/cm^2, 48 h
Method in brief: (§2)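 Adult R. sanguineus, I. ricinus, D. variabilis or A. americanum nymphs exposed in glass vials coated with compound from acetone (900 ppm gives 5 μg/cm^2). Held 48 h at room temperature (R. sanguineus) or 21° C., 85% rel. hum.; then heated at 45-50° C. ≤5 min, motionless or uncoordinated ticks scored dead/moribund.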

Laodelphax striatellus = assay: Insecticidal testing against small brown planthopper; type: in vivo; details: 144 h, concentration 100 ppm, sprayed rice seedlings, after 6 days, read-out: pesticidal rate
Method in brief: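 Acetone solution of compound at a set concentration sprayed onto rice seedlings, air-dried, then exposed to 10 planthoppers (one group). Held at 25° C; survival rate recorded after 6 days.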

Plutella xylostella = assay: Insecticidal testing against diamondback moth; type: in vivo; details: foliar, 144 h, concentration 100 ppm, cabbage leaf dip, third-stage larvae, after 6 days, read-out: pesticidal rate
Description: Insecticidal Testing Against Diamondback Moth (Plutella xylostella)

[2] = test system: Rhipicephalus (Boophilus) microplus; assay: In vitro injection test with Rhipicephalus (Boophilus) microplus (BOOPMI Inj); details: 168 h, laid fertile eggs after 7 days, read-out: acaricidal activity; for pest or weed control at 32 ng: dose 0.032 μg/animal injected; for pest or weed control at 0.00016 mg: dose 0.16 μg/animal injected; for pest or weed control at 0.0008 mg: dose 0.8 μg/animal injected
Method in brief: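 Test substance in DMSO; 1 μl injected into abdomen of each of 5 engorged adult female ticks, then held at 28° C., 85% rel. hum. Activity scored after 7 days from laying of fertile eggs: 100% = no eggs or all infertile, 0% = all eggs fertile.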

Dermacentor variabilis [3] = assay: In vitro contact test with adult hard ticks (Dermacentor variabilis); details: read-out: acaricidal activity; for pest or weed control at 0.2 µg/cm2, 0.2 µg/cm2: dose 0.2 μg/cm^2, 48 h; for pest or weed control at 1 µg/cm2, 1 µg/cm2: dose 1 μg/cm^2, 48 h
Method in brief: as §2

Dermacentor variabilis [4] = assay: Systemic treatment in-vivo test with American dog tick nymph on rats; details: Dermacentor variabilis, ip, intraperitoneal injection
Method in brief: as §1

Ctenocephalides felis [5] = assay: Ctenocephalides felis in-vitro feeding test with fleas (CTECFE oral); details: 48 hours, read-out: insecticidal feeding activity; for pest or weed control at 0.032 ppm: dose 0.032 ppm in citrated cattle blood; for pest or weed control at 0.16 ppm: dose 0.16 ppm in citrated cattle blood; for pest or weed control at 0.8 ppm: dose 0.8 ppm in citrated cattle blood; for pest or weed control at 4 ppm: dose 4 ppm in citrated cattle blood
Method in brief: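 About 20 unfed adult cat fleas fed through parafilm on citrated cattle blood containing test substance (DMSO solution diluted in blood), held at about 37° C. Kill rate scored after 48 hours, 100% meaning all fleas dead.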

[6] = SD 2, read-out: Geometric mean percent reduction in live flea (Ctenocephalides felis) counts compared to untreated control rats
[7] = SD 9, read-out: Geometric mean percent reduction in live flea (Ctenocephalides felis) counts compared to untreated control rats
[8] = SD 16, read-out: Geometric mean percent reduction in live flea (Ctenocephalides felis) counts compared to untreated control rats
[9] = SD 23, read-out: Geometric mean percent reduction in live flea (Ctenocephalides felis) counts compared to untreated control rats
[10] = SD 30, read-out: Geometric mean percent reduction in live flea (Ctenocephalides felis) counts compared to untreated control rats
[11] = SD 2, read-out: Geometric mean percent reduction in live tick (Dermacentor variabilis) counts compared to untreated control rats
[12] = SD 9, read-out: Geometric mean percent reduction in live tick (Dermacentor variabilis) counts compared to untreated control rats
[13] = SD 16, read-out: Geometric mean percent reduction in live tick (Dermacentor variabilis) counts compared to untreated control rats
[14] = SD 23, read-out: Geometric mean percent reduction in live tick (Dermacentor variabilis) counts compared to untreated control rats
[15] = SD 30, read-out: Geometric mean percent reduction in live tick (Dermacentor variabilis) counts compared to untreated control rats

Row | SMILES | inhibition in vivo at 10 mg/kg (Ctenocephalides felis [1]; [6]) | inhibition in vivo at 10 mg/kg (Ctenocephalides felis [1]; [7]) | inhibition in vivo at 10 mg/kg (Ctenocephalides felis [1]; [8]) | inhibition in vivo at 10 mg/kg (Ctenocephalides felis [1]; [9]) | inhibition in vivo at 10 mg/kg (Ctenocephalides felis [1]; [10]) | pest or weed control at 0.2 µg/cm2, 0.2 µg/cm2 (Amblyomma americanum) | pest or weed control at 1 µg/cm2, 1 µg/cm2 (Amblyomma americanum) | pest or weed control at 100 ppm (Laodelphax striatellus) | pest or weed control at 100 ppm (Plutella xylostella) | pest or weed control at 0.00016 mg [2] | pest or weed control at 0.0008 mg [2] | pest or weed control at 0.2 µg/cm2, 0.2 µg/cm2 (Dermacentor variabilis [3]) | pest or weed control at 1 µg/cm2, 1 µg/cm2 (Dermacentor variabilis [3]) | inhibition in vivo at 10 mg/kg (Dermacentor variabilis [4]; [11]) | inhibition in vivo at 10 mg/kg (Dermacentor variabilis [4]; [12]) | inhibition in vivo at 10 mg/kg (Dermacentor variabilis [4]; [13]) | inhibition in vivo at 10 mg/kg (Dermacentor variabilis [4]; [14]) | pest or weed control at 0.16 ppm (Ctenocephalides felis [5]) | pest or weed control at 0.8 ppm (Ctenocephalides felis [5]) | pest or weed control at 4 ppm (Ctenocephalides felis [5]) | also measured
1 | CN(C(=O)c1ccc(F)cc1)c1cccc(C(=O)Nc2c(I)cc(C(F)(C(F)(F)F)C(F)(F)F)cc2OC(F)(F)F)c1F [Compound 74] | 91% | 96% | 86% | 89% | 78% | 90% | 90% | ≥ 70% | ≥ 70% | 100% | 100% | 90% | 90% | 100% | 100% | 90% | 89% | 95% | 95% | 95% | pest or weed control at 32 ng [2]: 100%; inhibition in vivo at 10 mg/kg (Dermacentor variabilis [4]; [15]): 78%; pest or weed control at 0.032 ppm (Ctenocephalides felis [5]): 95%
2 | CN(C(=O)c1ccc(C(F)(F)F)nc1)c1cccc(C(=O)Nc2c(I)cc(C(F)(C(F)(F)F)C(F)(F)C(F)(F)F)cc2C(F)(F)F)c1F (stereo not shown) [Compound 119] | 100% | 97% | 94% | 62% | 44% | – | 90% | ≥ 70% | ≥ 70% | 100% | 100% | 90% | 90% | 100% | 100% | 100% | 89% | 95% | 95% | 95% | pest or weed control at 32 ng [2]: 100%; inhibition in vivo at 2 mg/kg (Dermacentor variabilis [4]; [11]): 100%; inhibition in vivo at 2 mg/kg (Dermacentor variabilis [4]; [12]): 96%; inhibition in vivo at 2 mg/kg (Dermacentor variabilis [4]; [13]): 63%; inhibition in vivo at 2 mg/kg (Dermacentor variabilis [4]; [14]): 1%; inhibition in vivo at 2 mg/kg (Dermacentor variabilis [4]; [15]): 61%; inhibition in vivo at 10 mg/kg (Dermacentor variabilis [4]; [15]): 61%; pest or weed control at 0.032 ppm (Ctenocephalides felis [5]): 95%
3 | CN(C(=O)c1ccc(F)cc1)c1cccc(C(=O)Nc2c(I)cc(C(F)(C(F)(F)F)C(F)(F)C(F)(F)F)cc2OC(F)F)c1F (stereo not shown) [Compound 103] | 100% | 92% | 70% | 20% | – | 90% | 90% | ≥ 70% | ≥ 70% | 100% | 100% | 90% | 90% | 100% | 100% | 74% | 43% | 95% | 95% | 95% | pest or weed control at 6.4 ng ([2]; dose 0.0064 μg/animal injected): 100%; pest or weed control at 32 ng [2]: 100%; pest or weed control at 0.04 µg/cm2, 0.04 µg/cm2 (Dermacentor variabilis [3]; dose 0.04 μg/cm^2, 48 h): 90%; pest or weed control at 0.0064 ppm (Ctenocephalides felis [5]; dose 0.0064 ppm in citrated cattle blood): 95%; pest or weed control at 0.032 ppm (Ctenocephalides felis [5]): 95%
4 | O=C(Nc1cccc(C(=O)Nc2c(I)cc(C(F)(C(F)(F)F)C(F)(F)F)cc2C(F)(F)F)c1F)c1ccc(C(F)(F)F)nc1 [Compound 67, N-(2-fluoro-3-((2-iodo-4-(perfluoropropan-2-yl)-6-(trifluoromethyl)phenyl)carbamoyl)phenyl)-6-(trifluoromethyl)nicotinamide] | 100% | 100% | 93% | 61% | 58% | 90% | 90% | ≥ 70% | ≥ 70% | 100% | 100% | 90% | 90% | 100% | 100% | 99% | 75% | 95% | 95% | 95% | inhibition in vivo at 2 mg/kg (Ctenocephalides felis [1]; [6]): 100%; inhibition in vivo at 2 mg/kg (Ctenocephalides felis [1]; [7]): 96%; inhibition in vivo at 2 mg/kg (Ctenocephalides felis [1]; [8]): 78%; inhibition in vivo at 2 mg/kg (Ctenocephalides felis [1]; [9]): 11%; inhibition in vivo at 2 mg/kg (Dermacentor variabilis [4]; [11]): 100%; inhibition in vivo at 2 mg/kg (Dermacentor variabilis [4]; [12]): 95%; inhibition in vivo at 2 mg/kg (Dermacentor variabilis [4]; [13]): 32%; inhibition in vivo at 2 mg/kg (Dermacentor variabilis [4]; [14]): 20%; inhibition in vivo at 10 mg/kg (Dermacentor variabilis [4]; [15]): 57%
